{"source": "patent US20150064713A1", "about": "“METHODS, KITS AND MEANS FOR DETERMINING INTRACELLULAR INTERACTIONS” (priority 2013, published 2015)", "tested_on": "regulatory and catalytic subunits of the cAMP dependent protein kinase A (PKA)", "assay": "PKA regulatory/catalytic subunit interaction monitored in living cells via VSVG RII-β-PARC (bait) and mCherry-cat-α (prey), TIRFM", "assay_type": "cell-based", "conditions": "mCherry-cat-α prey, within seconds upon addition", "source_text": "FIG. 8 Monitoring protein reaction dynamics inside individual cells. A: Domain structures of bait-PARCs to measure PKA subunit interactions. B: A bait-PARC containing the regulatory domain RII-β of PKA was co-expressed with the cytosolic prey protein (mCherry-cat- ? to monitor their interaction dynamics inside living cells. Left: Recruitment of the prey to bait microstructures before and after pharmacological perturbation. Right: Derived prey recruitment kinetics (Iso: Isoproterenol; Prop: Propranolol; F/I: forskolin+IBMX; see Supplementary Methods for details). Scale bar: 5 μm. c: Two distinct regulatory domains on bait-PARCs were co-expressed together with the prey protein mCherry-cat- ? . Left: Image of a representative experiment depicting cells grown on a DNA-immobilized antibody array. The checkerboard pattern of antibodies is overlayed with magenta (anti-HA) or cyan (anti-VSVG) circles. Right: The recruitment of prey proteins to the two distinct bait proteins was monitored in individual microstructured spots via TIRFM during pharmacological perturbation (Iso: Isoproterenol; ATP: adenosine triphosphate; F/I: forskolin+IBMX). Scale bar: 10 μm.\nAgonist induced activation of G-protein coupled receptors (GPCRs) leads to the dissociation of regulatory and catalytic subunits of the cAMP dependent protein kinase A (PKA) (Wong and Scott, 2004). […]"}
{"compound": "CC(C)NCC(O)c1ccc(O)c(O)c1", "note": "(stereo not shown) [isoproterenol]", "values": [{"measurement": "interaction between bait and prey upon addition of agonist", "result": "the interaction between bait and prey was lost"}]}
